≈ marks a conversion by molar mass, not a printed value. Where two headings read alike, the source gives them in different places.
Assays:
[1] = MTT assay, cytotoxic activity; format: cell-based; details: human
Description: (§1) Cells were seeded in 6 mL medium in a tissue culture flask (50 mL) in a 37 °C/5% CO2 humidified incubator. […] MTT analysis was performed according to a previous study.[59] Untreated cells were used as controls. Cell absorbance results were inserted into the formula for the relative MTT level (%). It allows to calculate the viability of cells under the influence of the tested compounds. Cell viability was expressed as the percentage of MTT reduction in cells treated with tested compounds compared to the control sample. The relative MTT level was calculated using the formula [100%] = A/B × 100% where A—the test sample absorbance and B—the control sample absorbance.

[2] = test system: PC3 cells; assay: MTT assay, cytotoxic activity; format: cell-based, human; details: Homo sapiens, PC-3, 72 h, MTT, 72 h
Description: as §1, with “Metastatic prostate cancer (PC3) and human immortal keratinocyte (HaCaT) cell lines were purchased from the American Type Culture Collection (ATCC, Rockville, MD, USA) and cultured in MEM (minimal essential medium, Thermo Sci, USA), RPMI 1640 (Roswell Park Memorial Institute, Biowest SAS, France), and DMEM (Dulbecco’s Modified Eagle’s Medium, Biowest SAS, France). Cells” for “Cells”

[3] = test system: M. tuberculosis H37Rv; assay: Tuberculostatic activity, Microplate Alamar Blue Assay (MIC); format: cell-based, Mycobacterium tuberculosis; details: Mycobacterium tuberculosis, H37RV, read-out: MIC M. tuberculosis H37Rv
[4] = test system: M. tuberculosis Spec. 192; assay: as above; format: cell-based; details: Mycobacterium tuberculosis, MABA, read-out: MIC M. tuberculosis Spec. 192 (sensitive to tuberculostatics)

| SMILES | IC50 at 72 h [1] [nM] | IC50 [2] [nM] | MIC ([3]; MABA) [µg/mL] | MIC [4] [µg/mL] | MIC [3] [µg/mL] |
| --- | --- | --- | --- | --- | --- |
| COc1cccc2c1C(=O)c1c(O)c3c(c(O)c1C2=O)C[C@@](O)(C(=O)CO)C[C@@H]3O[C@H]1C[C@H](N)[C@H](O)[C@H](C)O1 [doxorubicin, reference compound] | 300 ± 110 | 300 ± 120 | – | – | – |
| CC[C@@H](CO)NCCN[C@@H](CC)CO [ethambutol(EMB), ethambutol, reference compound] | – | – | 2 (≈ 9.79 µM) | 2 (≈ 9.79 µM) | – |
| NNC(=O)c1ccncc1 [isoniazid (INH), isoniazid, reference compound] | – | – | – | 0.125 (≈ 0.911 µM) | 0.125 (≈ 0.911 µM) |
| CO[C@H]1/C=C/O[C@@]2(C)Oc3c(C)c(O)c4c(O)c(c(/C=N/N5CCN(C)CC5)c(O)c4c3C2=O)NC(=O)/C(C)=C\C=C\[C@H](C)[C@H](O)[C@@H](C)[C@@H](O)[C@@H](C)[C@H](OC(C)=O)[C@@H]1C [rifampicin (RMP), rifampicin, reference compound] | – | – | 1 (≈ 1.22 µM) | 1 (≈ 1.22 µM) | – |
| [H]/N=C(/N)N[C@H]1[C@H](O)[C@@H](O)[C@H](O[C@@H]2O[C@@H](C)[C@](O)(C=O)[C@H]2O[C@@H]2O[C@@H](CO)[C@H](O)[C@@H](O)[C@@H]2NC)[C@@H](N/C(N)=N\[H])[C@@H]1O [streptomycin (SM), streptomycin, reference compound] | – | – | 1 (≈ 1.72 µM) | 1 (≈ 1.72 µM) | – |

— publication PMC10233829 (ACS Omega, 2023)
